Experimental data from patent publication US4424225A, “Thienobenzodiazepinones, pharmaceutical compositions thereof and method of use thereof” (Dr. Karl Thomae GmbH, priority 1982, dated 1984).

What was measured:
Testing for mydriasis = conditions: rat, in vivo, iv; pupil observed for 10 minutes
Method: The effect of the test substances on the pupil size in rats was investigated as follows:
The substances were administered intravenously to groups of 10 animals in at least three uniformly graduated doses. The pupil size was then observed for 10 minutes to see if there were any changes (mydriasis or miosis). […] The percentage of test animals in which mydriasis occurred was determined. The ED50 values were again determined using the method of LITCHFIELD and WILCOXON (see above).

[1] = molecular target: muscarinic receptors (cerebral cortex); test: Binding to muscarinic receptors, displacement of 3H-N-methylscopolamine, cerebral cortex; set-up: species or system rat (male Sprague-Dawley); conditions: 0.3 n molar 3H-NMS, 30° C., 45 minutes, pH 7.4, read-out: Receptor Binding Tests IC50, Cortex
Method: (§1) 3. STUDIES OF BINDING TO MUSCARINIC RECEPTORS: DETERMINATION OF THE IC50 VALUE
(§2) The organ donors were male Sprague-Dawley rats with a body weight of from about 180 to 220 gm each. After the heart, stomach, and cerebral cortex had been removed, the remainder of the operation was carried out in ice-cold Hepes-HCl buffer (pH 7.4; 100 m molar NaCl, 10 m molar MgCl2). The smooth muscle of the fundus of the stomach was separated from the mucous membrane of the stomach and subjected to preliminary homogenization. The whole heart was cut up with scissors. All the organs were then homogenized in a Potter apparatus.
(§3) For the binding test, the homogenized organs were diluted as follows:
(§4) The homogenized organ preparations were incubated at a specific concentration of the radioligand and with a series of concentrations of the non-radioactive test substances in an Eppendorf centrifuge tube at 30° C. The duration of incubation was 45 minutes. The substance 0.3 n molar ^3 H-N-methylscopolamine (^3 H-NMS) was used as the radioligand. After incubation had been brought to an end by centrifuging at 14000 g, the radioactivity in the pellet was determined. […] The proportion of non-specific binding was defined as the radioactivity which was bound in the presence of 1μ molar quinuclidinylbenzylate. […] The IC50 values of the non-labelled test substances were determined graphically. […]

[2] = molecular target: T1, muscarinic receptors (smooth muscle of the fundus of the stomach) (Rattus norvegicus, UniProt P10980); test: Binding to muscarinic receptors, displacement of 3H-N-methylscopolamine, smooth muscle of the fundus of the stomach; set-up: species or system rat (male Sprague-Dawley); conditions: 0.3 n molar 3H-NMS, 30° C., 45 minutes, pH 7.4, read-out: Receptor Binding Tests IC50, Smooth Muscle Fundus of Stomach
T1 construct: The smooth muscle of the fundus of the stomach was separated from the mucous membrane of the stomach; from tissue; host or cells: homogenized smooth muscle of the stomach fundus of male Sprague-Dawley rats
T1 sequence (P10980 1-466): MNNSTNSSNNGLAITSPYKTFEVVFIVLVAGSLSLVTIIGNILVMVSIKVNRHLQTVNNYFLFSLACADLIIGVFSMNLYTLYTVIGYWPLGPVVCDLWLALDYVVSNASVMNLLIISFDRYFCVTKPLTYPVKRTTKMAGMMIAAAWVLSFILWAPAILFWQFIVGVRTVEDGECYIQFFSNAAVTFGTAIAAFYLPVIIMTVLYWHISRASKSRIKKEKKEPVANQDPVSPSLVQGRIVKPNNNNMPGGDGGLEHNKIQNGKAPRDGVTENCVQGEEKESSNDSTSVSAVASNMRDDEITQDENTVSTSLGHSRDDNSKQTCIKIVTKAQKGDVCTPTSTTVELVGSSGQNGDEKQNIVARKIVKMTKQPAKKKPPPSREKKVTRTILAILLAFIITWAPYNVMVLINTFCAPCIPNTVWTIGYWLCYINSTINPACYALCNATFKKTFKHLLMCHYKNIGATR
Method: as §1, §2, §3
Smooth muscle of the fundus of the stomach: 1:100
as §4, with “The substance 0.3 n molar ^3 H-N-methylscopolamine (^3 H-NMS) was used as the radioligand.” left out

[3] = test system: oxotremorine-induced lesions in the mucous membrane of the stomach (muscarinic receptors); test: Oxotremorine test: protection against oxotremorine-induced lesions of the gastric mucous membrane; type: in vivo, rat (female albino, Crl: COBS-CD (SD) BR); conditions: Rattus norvegicus, iv, 15 minutes before oxotremorine 0.62 mg/kg i.v., neostigmine 1 mg/kg oral
Method: (§5) Oxotremorine, a specific agonist for muscarinic receptors, produces lesions in the mucous membrane of the stomach in rats and increases their secretion of saliva. This test method was chosen so that any selective activity of an anti-muscarinic substance on the stomach could be identified.
Ten female albino rats (of the Crl: COBS-CD (SD) BR strain) with a body weight of from 120 to 150 gm apiece were used in each treatment group and were kept without food for 24 hours before the start of the test but given free access to drinking water. […]
(§6) Each antimuscarinic substance was administered intravenously in uniformly graduated doses 15 minutes before the oxotremorine was administered. Control groups were given corresponding quantities of the solvent and suspension agent instead of the test substance. […]
(§7) The ED50 values were determined using the method described by LITCHFIELD and WILCOXON (J. Pharmacol. Exp. Ther. 96, 99, 1949).
The effects on lesions of the mucous membrane of the stomach were evaluated as follows:
The lesions of the gastric mucous membrane were produced by intravenous injection of 0.62 mg/kg of oxotremorine 30 minutes after oral administration of 1 mg/kg of neostigmine (a cholinesterase inhibitor). […] The protective effect of the test substances was expressed as the percentage inhibition (percentage of animals without lesions). […]

[4] = Oxotremorine test: inhibition of oxotremorine-induced secretion of saliva; set-up: species or system rat (female albino, Crl: COBS-CD (SD) BR); conditions: rat, in vivo, iv, 15 minutes before oxotremorine 0.083 mg/kg i.v.; read-out: Oxotremorine Test, Inhibition of Salivation ED50
Method: as §5
Ten female albino rats (of the Crl: COBS-CD (SD) BR strain) with a body weight of from 120 to 150 gm apiece were used in each treatment group and were kept without food for 24 hours before the start of the test but given free access to drinking water.
To determine, in preliminary tests, the muscarinic effect of oxotremorine on each of the symptoms studied, a dosage/activity curve was drawn up with at least three dosages for each symptom.
When the antimuscarinic substances were tested, the dosage of oxotremorine which triggered the symptom in question in 90 to 100% of the animals in the preliminary tests was used.
Secretion of saliva: 0.083 mg/kg i.v.
as §6, §7

CN1CCC(CC(=O)N2c3ccccc3NC(=O)c3cscc32)CC1 [A, 4,9-Dihydro-4-[(1-methyl-4-piperidinyl)acetyl]-10H-thieno[3,4-b][1,5]benzodiazepin-10-one]
ED50 at 10 min (Testing for mydriasis): 0.03 mg/kg
IC50 [1]: 20 nM
IC50 [2]: 75 nM
ED50 ([3]; read-out: Oxotremorine Test, Anti-ulcerative Effect ED50): 0.0078 mg/kg
ED70 ([3]; read-out: Oxotremorine Test, Anti-ulcerative Effect ED70): 0.014 mg/kg
ED50 at 0.25 h [4]: 0.0215 mg/kg
